Data from paper PMC8662641, “Site-Specific Labeling of Endogenous Proteins Using CoLDR Chemistry” (Journal of the American Chemical Society, 2021).
Values joined by “and” are separate entries in the source; they are usually repeats but may differ in a detail not shown here. Equal values may be shown once.

Columns and labels:
BTK = BTK (Homo sapiens, UniProt Q06187); set-up: BTK kinase domain was expressed and purified as previously reported; made in house; method as in Reddi et al., J. Am. Chem. Soc. 2021, 143 (13), 4979–4992; details: ref Reddi et al., J. Am. Chem. Soc. 2021, 143 (13), 4979–4992; cited from earlier work
BTK, sequence (Q06187 402-655 limits assumed): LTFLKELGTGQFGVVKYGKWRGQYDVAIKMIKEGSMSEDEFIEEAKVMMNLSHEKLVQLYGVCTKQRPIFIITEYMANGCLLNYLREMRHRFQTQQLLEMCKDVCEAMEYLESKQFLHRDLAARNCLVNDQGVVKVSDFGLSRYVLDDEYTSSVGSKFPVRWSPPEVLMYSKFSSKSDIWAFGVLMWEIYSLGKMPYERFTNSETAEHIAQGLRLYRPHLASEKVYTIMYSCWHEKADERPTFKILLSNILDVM

BTK-1h = biological target: T1, BTK-1h (Homo sapiens, UniProt Q06187); test: High-throughput screening with 1h-labeled BTK; format: binding; details: Dataset S2A; 200 μM compound, BTK-1h, 32 °C, 10 min
T1 construct: The BTK kinase domain was diluted to 2 μM in the buffer, and 2 μM 1h was added; made in house
T1 sequence (Q06187 402-655): as the sequence (Q06187 402-655 limits assumed) above
Procedure: The collection was composed of BTK binding compounds obtained in our previous luminescence screen[37] (Data set S2). […] The resulting BTK-1h (50 μL) was added to the inhibitors.

Structure (SMILES)	BTK Inhibition reported in luminescence assay* (BTK)	FI (650)/FI (620) (BTK-1h)	FI (BTK-1h)/FI (BTK-1h+Inhibitor) at 620 nm (BTK-1h)
Cl.Cl.O=C1c2c(O)ccc(O)c2C(=O)c2c(NCCNCCO)ccc(NCCNCCO)c21 [PCM-0065547-003]	51	1.449	1.019
Cc1cc(-c2ccc(N=Nc3ccc4c(S(=O)(=O)[O-])cc(S(=O)(=O)[O-])c(N)c4c3O)c(C)c2)ccc1N=Nc1ccc2c(S(=O)(=O)[O-])cc(S(=O)(=O)[O-])c(N)c2c1O.[Na+].[Na+].[Na+].[Na+] [PCM-0214845-001]	125.3	–	7.121
COC[C@H]1C[C@@H](c2ncc(-c3ccc4c(c3)COc3cc5c(ccc6[nH]c([C@@H]7CC[C@H](C)N7C(=O)[C@@H](NC(=O)OC)C(C)C)nc65)cc3-4)[nH]2)N(C(=O)[C@H](NC(=O)OC)c2ccccc2)C1 [PCM-0214920-001]	56	0.8577	1.025
CC1(C)C=Cc2c(ccc3c2OC[C@@H](c2ccc(O)cc2O)C3)O1 [PCM-0214974-001]	70.3	1.13	1.0065
CC(O)C(=O)O.CN1CCN(c2ccc3nc(-c4c(N)c5c(F)cccc5[nH]c4=O)[nH]c3c2)CC1.O [PCM-0094915-004]	53.8	1.048 and 1.073	1.015 and 1.028
CS(=O)(=O)O.O=C(Nc1cccc(Cl)c1)Nc1ncc(CCNc2ncnc3ccsc23)s1 [PCM-0094983-002]	73.1	1.066	1.085
O=c1cc(-c2ccccc2)oc2cc(O)c(O)c(O)c12 [PCM-0214670-001]	79.4	2.028	1.072
Cc1ccccc1C(=O)Nc1ccc(C(=O)N2CCCC(N(C)C)c3ccccc32)cc1 (centres unmarked) [PCM-0095424-002]	70	1.034	1.021
CC(=O)O[C@@H]1CC[C@@]2(C)[C@@H](CC[C@]3(C)[C@@H]2C(=O)C=C2[C@@H]4[C@@H](C)[C@H](C)CC[C@]4(C)CC[C@]23C)[C@@]1(C)C(=O)O [PCM-0216599-001]	88	0.9109	1.037
Cn1cc(-c2[nH]c3cc(NC(=O)[C@H](N)C4CCCCC4)cc4c3c2C=NNC4=O)cn1 [PCM-0095372-002]	111	2.04	1.441
Cc1cc(N2CCOCC2)cc2[nH]c(-c3c(NC[C@@H](O)c4cccc(Cl)c4)cc[nH]c3=O)nc12 [PCM-0214699-001]	109	1.235	1.093
Cc1cnc(Nc2ccc(F)cc2Cl)nc1-c1c[nH]c(C(=O)N[C@H](CO)c2cccc(Cl)c2)c1 [PCM-0213398-002]	60	1.007	1.033
CCOc1cc2ncc(C#N)c(Nc3ccc(F)c(Cl)c3)c2cc1NC(=O)/C=C/CN(C)C [PCM-0095063-002]	96.6	0.9721	1.036
COc1cc(O)c2c(=O)cc(-c3ccc(O)c(O)c3)oc2c1 [PCM-0216461-001]	61	2.385	1.063
CC(C)N1CCN(Cc2cnc(-c3cc(-c4cccc5[nH]ccc45)cc4[nH]ncc34)o2)CC1 [PCM-0213407-002]	51.7	0.9167	1.042
O=C(c1ccccc1O)c1[nH]c(Cl)c(Cl)c1-n1c(C(=O)c2ccccc2O)cc(Cl)c1Cl [PCM-0215850-001]	117.4	1.151	1.016
CC(C)(O)CC(=O)NCCn1ccc2ncnc(Nc3ccc(Oc4cccc(C(F)(F)F)c4)c(Cl)c3)c21 [PCM-0095364-002]	73.8	0.8854	1.06
C=CC(=O)N1CC[C@@H](Oc2nc(Nc3ccc(N4CCC(N5CCN(C)CC5)CC4)cc3)c(C(N)=O)nc2CC)C1 [PCM-0215788-001]	91	1.046	1.04
COc1cc2nccc(Oc3ccc(NC(=O)C4(C(=O)Nc5ccc(F)cc5)CC4)cc3)c2cc1OC [PCM-0094920-004]	123.4	1.097 and 1.08	1.121 and 1.125
